# Reference: US20200281989A1, “METHOD OF PREPARING A COMPOSITION FOR TREATING CANCER” (priority 2019, published 2020)
# How the values were obtained:
# [1] = test system: human leukemia K562 cells; test: WST-1 cell proliferation assay, K562 leukemia cells; format: cell-based; details: for anti-proliferative effect on leukemic K562 cells: WST-1, FIGS. 3B, 4A
# Method: The graphs show results of different concentrations of the compounds using the WST-1 spectrophotometric detection assay. WST is a colorimetric assay to assess cell proliferation under different treatment conditions. This assay is based on the cleavage of a tetrazolium salt (2-(4-Iodophenyl)-3-(4-nitrophenyl)-5-phenyl-2h-tetrazolium chloride) to form formazan (a colored compound) by mitochondrial dehydrogenases in viable cells. As a result, the assay measures the net metabolic activity of the cells. Human leukemia K562 cell line was purchased from ATCC (Manassas, Va., USA) and plated a day before the experiment in normal growth medium. The next day, the medium was replaced with serum free medium (Gibco #11835-030) to starve the cells for 4 h. Cells were deprived of serum for 4 h before treatment with the lipids to eliminate binding of the compounds to serum proteins. After starvation, K562 cells were then centrifuged. The medium was replaced with fresh IMDM media containing 1% (v/v) FBS and 100 units of PS. Cells (1×104 in 100 L) were seeded into each well with conditioned medium for overnight (20 h) in a 96-well plate to which the test compounds (−ve control ethanol, Ft-3, F-6 and S5) were added at the concentrations indicated. A volume of 10 uL WST-1, cell proliferation assay reagent (Roche Diagnostics, Indianapolis, Ind., USA), was added to each well and incubated for 4 h, and then the wells were read on a plate reader at 450 nm with a reference reading at 650 nm. Reference reading at 650 nm was used for subtracting background readouts.
# Another embodiment of the anti-cancer oral composition was prepared by combining lipid Fraction 3 of the neutral lipid fraction and ethanol in a ratio of 20 μg/μL to provide a mixture. The mixture was prepared by dissolving Fraction 3 in pure ethanol then diluting it to the desired concentration with culture medium. Cells (1×10^4) were starved overnight in serum-free medium, then the medium was replaced prior to incubation with IMDM/1% FBS/pen-strep. […]
# [2] = test system: human pancreatic cancer cells (Panc-1 cells); test: Cell growth inhibition, Panc-1 pancreatic cancer cells; format: cell-based; details: F6 5-50 μg/ml for 72 hours, FIG. 18A
# [3] = test system: human breast cancer cells MDA MB-231; test: WST-1 cell proliferation assay, MDA MB-231 breast cancer cells; format: cell-based; details: WST-1, FIG. 4C
# Method: FIG. 4C is a graph showing the effect of fraction 3 of the neutral lipids, furan (F6), and a steroid (S5) on human breast cancer cells MDA MB-231 using the WST-1 spectrophotometric detection assay. The assay measured the net metabolic activity of the cells. Human breast MDA MB-231 cell line was purchased from ATCC (Manassas, Va., USA). MCF-7 and 1_x 10^4 cells/well/100 uL) and were plated a day before experiment in normal growth medium. The next day, medium was replaced with serum free medium (Gibco #11835-030) to starve the cells for 4 h. Cells were deprived of serum for 4 h before treatment with the lipids to eliminate binding of the compounds to serum proteins. After starvation, Cells (1_x 104 in 100 L) were seeded into each well with conditioned medium overnight (20 h) in a 96-well plate to which the test compounds (−ve control ethanol, Ft-3, F-6 and S5) were added at the concentrations indicated. A volume of 10 uL WST-1, cell proliferation assay reagent (Roche Diagnostics, Indianapolis, Ind., USA), was added to each well and incubated for 4 h. Then, the wells were read on a plate reader at 450 nm with a reference reading at 650 nm. Reference reading at 650 nm was used for subtracting background readouts.
# Panc-1 cells [4] = test: Invasion chamber (transwell) assay, Panc-1 cells; format: cell-based, human; details: concentration dependent, 6 hours incubation, FIGS. 19A-19B
# Method: (§1) Another embodiment of the anti-cancer oral composition was prepared by combining lipid Fraction 1 with ethanol to provide a first mixture in a ratio of 5 μg/mL, a second mixture in a ratio of 10 μg/mL, and a third mixture in a ratio of 25 μg/mL. The mixtures and a control (0.1% ethanol) were tested for inhibition of metastatic potential of cancer Hep3B cell line (FIGS. 13A-13E) and cancer Panc-1 cell line (FIGS. 13F-131).
# (§2) An aliquot of 0.5 ml Hep3B or Panc-1 cell suspension in serum-free medium with BSA (1 mg/ml) containing 6×10^4 cells/ml was mixed with F6 and then applied to each invasion chamber. An aliquot of 0.5 ml medium with 10% serum was loaded into the bottom of the well. After incubation for 6 hours, cells that invaded to the bottom surface of the transwell were fixed with 70% ethanol, stained with Diff Quik solution (Sysmex), and counted in five selected fields.
# Hep3B cells = test: Invasion chamber (transwell) assay / metastatic potential, Hep3B cells; format: cell-based, human; details: FIGS. 17A-17E
# Method: as §1, §2
# Panc-1 cells [5] = test: Apoptosis induction (cell cycle, caspase-3), pancreatic cancer cells; format: cell-based, human; details: FIGS. 18A-18F
# breast MCF-7 cells = test: WST-1 cell proliferation assay, MCF-7 breast cancer cells; format: cell-based, human; details: WST-1, FIG. 4B
# Method: FIG. 4B is a graph showing the effect of fraction 3 of the neutral lipids, furan (F6), and a steroid found in fraction 3 of the neutral lipids, (S5) and the two isolated components from fraction 3 of the neutral lipids on breast MCF-7 cells using the WST-1 spectrophotometric detection assay. WST was performed to assess cell proliferation under different treatment conditions. The assay measured the net metabolic activity of the cells. Human breast MCF-7 cell line was purchased from ATCC (Manassas, Va., USA). 1×10^4 cells/well/100 L) and were plated a day before experiment in normal growth medium. The next day, the medium was replaced with serum free medium (Gibco #11835-030) to starve the cells for 4 h. Cells were deprived of serum for 4 h before treatment with the lipids to eliminate binding of the compounds to serum proteins. After starvation, the medium was replaced with fresh IMDM media containing 1% (v/v) FBS and 100 units of PS. Cells (1×104 in 100 L) were seeded into each well with conditioned medium overnight (20 h) in a 96-well plate to which the test compounds (−ve control ethanol, Fr-3 of the neutral lipids, F6 and S5) were added at the concentrations indicated. […] Then, the wells were read on a plate reader at 450 nm with a reference reading at 650 nm. Reference reading at 650 nm was used for subtracting background readouts.
# Capan2 cells = test: Proliferation of Capan2 pancreatic cancer cells; format: cell-based, human; details: F6 5-50 μg/ml for 72 hours, FIG. 18A
# BxPC3 cells = test: Proliferation of BxPC3 pancreatic cancer cells; format: cell-based, human; details: F6 5-50 μg/ml for 72 hours, FIG. 18A
SMILES,anti-proliferative effect on leukemic K562 cells [1],inhibition of proliferation of Panc-1 cells [2],anti-proliferative effect on breast MDA MB-231 cells [3],invasion of Panc-1 cells (Panc-1 cells [4]),Hep3B cell metastasis (markers migration and invasion) (Hep3B cells),mechanism of regulation of pancreatic cancer cell growth (Panc-1 cells [5]),anti-proliferative effect on breast MCF-7 cells (breast MCF-7 cells),inhibition of proliferation of Capan2 cells (Capan2 cells),inhibition of proliferation of BxPC3 cells (BxPC3 cells),"effect of combination of Fraction 3 and Gleevec on K562 cell survival ([1]; Gleevec 2 uM with Fraction 3, WST-1, FIG. 3B)"
"CCCCCc1oc(CCCCCCCCCCC(=O)O)c(C)c1C [Fraction F6, 12,15-epoxy-13,14-dimethyleicosa-12,14-dienoic acid]",anti-proliferative effects,potently inhibited proliferation,anti-proliferative effects,inhibited invasion,inhibit cancer Hep3B cell metastasis,induction of apoptosis,anti-proliferative effects,potently inhibited proliferation,potently inhibited proliferation,–
"CC(C)CCC[C@@H](C)[C@H]1CC[C@H]2[C@@H]3CC=C4C=CCC[C@]4(C)[C@H]3CC[C@]12C [Fraction S5, cholesta-3,5-diene]",anti-proliferative effects,–,anti-proliferative effects,–,inhibit cancer Hep3B cell metastasis,–,anti-proliferative effects,–,–,–
"Cc1ccc(NC(=O)c2ccc(CN3CCN(C)CC3)cc2)cc1Nc1nccc(-c2cccnc2)n1 [Gleevec, reference compound]",–,–,–,–,–,–,–,–,–,potentiated the anti-proliferative effect
